Measurements from patent publication US20080171779A1, “USE OF 5-HT6 ANTAGONISTS TO PREVENT RELAPSE INTO ADDICTION” (Solvay Pharmaceuticals B.V., priority 2007, published 2008).

Tests used:
[1] = system: cue-induced relapse of alcohol seeking in the rat; assay: Stimulus (cue) induced reinstatement of extinguished self-administration of alcohol; format: in vivo; details: for Nose-pokes after an alcohol induced cue, former alcoholics / Nose-pokes after an alcohol induced cue, total abstainers: 45 min test, mean ± spread; for amount of active nose-pokes versus placebo, cue induced alcohol seeking: one-way ANOVA, Fisher's LSD; for inactive nose-pokes versus placebo, cue induced alcohol seeking: all tested dosages
Experimental: After learning to consume alcohol 12% (v/v) in a two-bottle paradigm, rats were trained to self-administer alcohol in the operant cage. When response-rates were stable, animals were withdrawn from alcohol for three weeks. Subsequently, the effect of 5-HT6 antagonists on relapse was tested by re-exposing the animals to alcohol-related stimuli.
(§1) Animals: 64 male Wistar rats, weighing 280-300 g at arrival (Harlan, the Netherlands) were used for testing compound 33. The animals were housed individually in a temperature—(T=22±2° C.) and humidity (rel %=60±5%) controlled room on a reversed 12 h light-dark cycle (lights off at 7:00 AM) with water available ad libitum. The animals were on a diet of 18 gr chow per animal per day. The experiment started after one week of acclimatization and lasted 12-14 weeks.
Drug Self-administration: All training and testing was conducted in 16 operant chambers (30.5×24.1×29.2 cm) surrounded by sound attenuating ventilated cubicles (Med Associates, Georgia, Vt.). The chambers were fitted with a grid floor, a red dim house light and opposite the house light an intelligence panel. In the intelligence panel there were two nose-poke holes (Ø2.5 cm) located 5.5 cm above the grid floor and 16 cm separated from each other. A red dim stimulus light was located 12 cm above both nose-poke holes. Between the two nose-poke holes, a receptacle was located, in which the alcohol was delivered. High above the receptacle was a sonalert tone module. […] The alcohol drop was delivered by an infusion pump (PHM-100, MedAssociates, Georgia, Vt.) in 4.2 seconds During alcohol delivery, the active nose-poke hole was illuminated and a tone (±65 dB) was presented by the sonalert tone module for 2 seconds. The receptacle was illuminated for 5 seconds (discrete cues). The stimulus light switched off for 15 seconds (discriminative cue). In this 15 second time-out period, nose-poking was without consequences.
Animals were selected for further testing if they consumed alcohol doses (in the FR4-schedule) above the literature described pharmacological effective dose of 0.3 g/kg/hr (Linseman, 1987). Subsequently, when response behavior on the FR4-schedule was stable, there was a 3 week period of withdrawal in the homecage.
Test for reinstatement: After the withdrawal period, each animal was tested twice for cue induced reinstatement with a week of further extinction training and wash-out in between. Animals were randomly distributed over the different experimental groups and never received the same treatment twice. On test days, the animals were placed in the operant cage for three or four hours (test day 1: 4 hr; test day 2: 3 hr) in absence of alcohol and alcohol related stimuli (discrete and discriminative cues) to extinguish response behavior. One hour before the end of this extinction session, the animal was removed from the operant cage and treated with a 5-HT6 antagonist. After drug administration the animals was placed back into the operant chamber, where the session continued. When the last hour had passed, the cue-induced relapse test session started (duration: 45 min). During this test, the experimental conditions were similar to the conditions during training on an FR4-schedule, with the exceptions that 1) at the beginning of the session, a 12% alcohol drop of 0.20 ml was available (delivered in the receptacle by the experimenter at the begin of the test session) and 2) after every 4th response, only cues were presented (no alcohol was delivered). Tests were operated and raw data was saved by the MED-PC IV program (Tatham, 1989).
Drugs: Alcohol 12% (v/v) was made from alcohol 96% and diluted with tap water. Compound 33 was suspended in 5% Tween 80, 0.25% methylcellulose, 5% PEG 400 and H2O HPLC (65% of end volume). Ethanol was added and evaporated under N2-gas. The pH was adjusted to 5.8. In the range: 0, 3,10, and 30 mg/kg, compound 33 was administered intraperitoneally, 15 minutes before testing. The injection volume was 2 ml/kg. […]

[2] = system: cue-induced relapse of alcohol seeking in the rat; assay: as above; format: in vivo; details: 20 mg/kg
[3] = system: relapse behavior induced by conditioned drug cues (cocaine, heroin, nicotine, alcohol); details: cues previously associated with cocaine, nicotine and alcohol delivery; cited from earlier work
[4] = system: cue-induced relapse of nicotine seeking in the rat; assay: Stimulus (cue) induced reinstatement of extinguished self-administration of nicotine; format: in vivo; details: for Nose-pokes after a nicotine induced cue, total abstainers / Nose-pokes after a nicotine induced cue, former nicotine addicts: 30 min test, mean ± spread; for Nose-pokes after a nicotine induced cue, former nicotine addicts: column 'former nicotine addicts'
Excerpt: Using a very similar test protocol, 5-HT6 antagonists were also found to suppress cue-induced nicotine-seeking behavior. Thus 5-HT6 antagonists are believed useful for the preparation of medicaments for preventing relapse into addiction, in particular relapse into addiction to substances of abuse, including opiates, hallucinogens, inhalants, phencyclidine, amphetamines, cocaine, cannabis, nicotine, and alcohol, medicaments for preventing relapse to addiction to certain medicines, including sedatives, hypnotics and anxiolytics, and medicaments for preventing relapse to certain addictive behaviors, including gambling.
as §1, with “32” for “64”, “water and food” for “water”, “libitum.” for “libitum. The animals were on a diet of 18 gr chow per animal per day.”
Surgery: after a week of acclimatization, intravenous silicon catheters are implanted in the right jugular vein under isoflurane anesthesia as described previously in De Vries, 1999.
Drug Self-administration: All training and testing was conducted in 16 operant chambers (30.5×24.1×29.2 cm) surrounded by sound attenuating ventilated cubicles (Med Associates, Georgia, Vt.). The chambers were fitted with a grid floor, a red dim house light and opposite the house light an intelligence panel. In the intelligence panel there were two nose-poke holes (Ø2.5 cm) located 5.5 cm above the grid floor and 16 cm separated from each other. A red dim stimulus light was located 12 cm above both nose-poke holes. A tone module was located at the top of the center of the intelligence panel. During self-administration, animals were connected to an infusion pump (PHM-100, Med Associates, Georgia, V.T.) by a swivel to receive intravenous infusions of nicotine (40 μg/kg/inf). […] During this infusion, the active nose poke hole was illuminated (yellow light) and an audio stimulus was presented (tone of 2900 Hz and 65 dB for 2 seconds) (discrete cues). From the moment of nicotine delivery, the stimulus light switched off for 15 seconds (discriminative cue). In this time-out period, nose poking was without consequences.
Acquisition, withdrawal and reinstatement: Behavioral training started 5-7 days after surgery. […] When response behavior was stable, animals were selected for further testing if they earned at least 5 rewards during the last three sessions of the FR3 schedule and the reward delivery was equal distributed over the session. Subsequently, responding for nicotine was extinguished. In this extinction phase (11 daily sessions of 60 min), the animals were placed in the operant chambers, but the nicotine and nicotine related stimuli (discrete and discriminative cues) were not available. Finally, the animals were tested for cue-induced reinstatement. During this test (duration of 30 minutes), the experimental conditions were similar to the conditions during training on an FR3-schedule, with the exception that no nicotine was available and the animals were not connected to the swivel.
Tests for cue-induced reinstatement were conducted twice; between these two test days, there was a week of further extinction training (wash-out period). During cue-induced reinstatement, effects of 5-HT6 antagonists were studied on output measurements.
Drugs: Nicotine for self-administration: (−) nicotine hydrogen tartrate salt (Sigma, St Louis, Mo.) was dissolved in sterile saline. The pH of the solution was adjusted to +/−7.4 with diluted NaOH. Nicotine dose was expressed as free base weight. Compound 33 was suspended in 5% of end volume Tween 80. Ethanol was added and evaporated under N2-gas for 30 minutes. […] After the pH was adjusted to 5.5, 10% of end volume H2O HPLC was added. […]

COc1ccc(NS(=O)(=O)c2sc3ccc(Cl)cc3c2C)cc1N1CCNCC1.Cl [SB-271046, reference compound]
Nose-pokes after an alcohol induced cue, former alcoholics ([1]; 3 mg/kg): 11.9 ± 5.4 | Nose-pokes after an alcohol induced cue, total abstainers ([1]; 3 mg/kg): 1.1 ± 0.5 | Nose-pokes after an alcohol induced cue, total abstainers ([1]; 10 mg/kg): 0.9 ± 0.5 | amount of active nose-pokes versus placebo, cue induced alcohol seeking ([1]; 10 mg/kg, p<0.05): significantly lower | inactive nose-pokes versus placebo, cue induced alcohol seeking [1]: no significant difference | relapse into addiction (alcohol) [2]: prevented from relapse into addiction | Nose-pokes after an alcohol induced cue, total abstainers ([2]; 'total abstainers', 45 min test, mean ± spread): 2.7 ± 1.9 | amount of active nose-pokes versus placebo, cue induced alcohol seeking ([2]; one-way ANOVA, Fisher's LSD, p<0.005): significantly lower

Cc1c(C(=O)NN2CCCCC2)nn(-c2ccc(Cl)cc2Cl)c1-c1ccc(Cl)cc1 [SR141716A]
relapse behavior induced by conditioned drug cues [3]: able to selectively reduce relapse behavior

CCN/C(=N\S(=O)(=O)c1cccc(Cl)c1)N1CC(C)(C)C=N1 [compound 33]
Nose-pokes after a nicotine induced cue, total abstainers ([4]; 3 mg/kg intraperitoneally): 4.58 ± 1.17 | Nose-pokes after a nicotine induced cue, former nicotine addicts ([4]; 3 mg/kg intraperitoneally): 24.83 ± 3.20 | Nose-pokes after a nicotine induced cue, total abstainers ([4]; 10 mg/kg intraperitoneally): 3.00 ± 1.04 | Nose-pokes after a nicotine induced cue, former nicotine addicts ([4]; 10 mg/kg intraperitoneally): 28.50 ± 7.40 | relapse into addiction (nicotine) ([4]; 30 mg/kg): prevented from relapse into addiction | Nose-pokes after a nicotine induced cue, total abstainers ([4]; 30 mg/kg intraperitoneally): 1.75 ± 0.74 | amount of active nose-pokes versus placebo, cue induced nicotine seeking ([4]; 30 mg/kg, one-way ANOVA, Fisher's LSD, p<0.05): significantly lower | inactive nose-pokes versus placebo, cue induced nicotine seeking ([4]; all tested dosages): no significant difference | Nose-pokes after an alcohol induced cue, former alcoholics ([1]; 3 mg/kg): 27.0 ± 6.1 | Nose-pokes after an alcohol induced cue, total abstainers ([1]; 3 mg/kg): 1.1 ± 0.2 | Nose-pokes after an alcohol induced cue, former alcoholics ([1]; 10 mg/kg): 23.5 ± 4.2 | Nose-pokes after an alcohol induced cue, total abstainers ([1]; 10 mg/kg): 2.2 ± 1.5 | relapse into addiction (alcohol) ([1]; 30 mg/kg): prevented from relapse into addiction | Nose-pokes after an alcohol induced cue, total abstainers ([1]; 30 mg/kg): 0.8 ± 0.1 | amount of active nose-pokes versus placebo, cue induced alcohol seeking ([1]; 30 mg/kg, p<0.005): significantly lower | inactive nose-pokes versus placebo, cue induced alcohol seeking [1]: no significant difference
